Results published in PMC10743905, “Design, Synthesis, and In Vitro and In Vivo Bioactivity Studies of Hydrazide–Hydrazones of 2,4-Dihydroxybenzoic Acid” (International Journal of Molecular Sciences, 2023).
≈ marks a conversion by molar mass, not a printed value.

Each compound was assayed on Salmonella typhimurium ATCC 14028 (assay: Broth microdilution MIC/MBC). Settings: Salmonella enterica.
Type: cell-based
In short: (§1)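 Minimal inhibitory concentrations are determined by broth microdilution following EUCAST and CLSI. DMSO-dissolved compounds are serially halved from 1000 to 0.488 µg/ml final; inocula are 0.5 McFarland.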

Row | SMILES | MIC
1 | O=C(N/N=C/c1ccc([N+](=O)[O-])cc1)c1ccc(O)cc1O [Compound 21, 2,4-dihydroxy-N-[(4-nitrophenyl)methylidene]benzohydrazide] | > 1000 µg/mL
2 | O=C(N/N=C/c1ccccc1Cl)c1ccc(O)cc1O [Compound 22, N-[(2-chlorophenyl)methylidene]-2,4-dihydroxybenzohydrazide] | > 1000 µg/mL
3 | O=C(N/N=C/c1ccccc1Br)c1ccc(O)cc1O [Compound 23, N-[(2-bromophenyl)methylidene]-2,4-dihydroxybenzohydrazide] | > 1000 µg/mL
4 | O=C(N/N=C/c1ccccc1F)c1ccc(O)cc1O [Compound 24, N-[(2-fluorophenyl)methylidene]-2,4-dihydroxybenzohydrazide] | > 1000 µg/mL

Each compound was assayed on Staphylococcus aureus ATCC 43300 (assay: Broth microdilution MIC/MBC). Settings: Staphylococcus aureus ATCC 43300 (MRSA).
Type: cell-based
In short: as §1

Row | SMILES | MBC | MBC/MIC | MIC
5 | O=C(N/N=C/c1ccc([N+](=O)[O-])cc1)c1ccc(O)cc1O [Compound 21, 2,4-dihydroxy-N-[(4-nitrophenyl)methylidene]benzohydrazide] | > 1000 µg/mL | > 2 | 500 µg/mL (≈ 1.66 mM)
6 | O=C(N/N=C/c1ccccc1Cl)c1ccc(O)cc1O [Compound 22, N-[(2-chlorophenyl)methylidene]-2,4-dihydroxybenzohydrazide] | – | – | > 1000 µg/mL
7 | O=C(N/N=C/c1ccccc1Br)c1ccc(O)cc1O [Compound 23, N-[(2-bromophenyl)methylidene]-2,4-dihydroxybenzohydrazide] | – | – | > 1000 µg/mL
8 | O=C(N/N=C/c1ccccc1F)c1ccc(O)cc1O [Compound 24, N-[(2-fluorophenyl)methylidene]-2,4-dihydroxybenzohydrazide] | – | – | > 1000 µg/mL

The compounds below were run on Proteus mirabilis ATCC 12453 (assay: Broth microdilution MIC/MBC). Settings: ATCC12453.
Type: cell-based
In short: as §1

Row | SMILES | MIC
9 | O=C(N/N=C/c1ccc([N+](=O)[O-])cc1)c1ccc(O)cc1O [Compound 21, 2,4-dihydroxy-N-[(4-nitrophenyl)methylidene]benzohydrazide] | > 1000 µg/mL
10 | O=C(N/N=C/c1ccccc1Cl)c1ccc(O)cc1O [Compound 22, N-[(2-chlorophenyl)methylidene]-2,4-dihydroxybenzohydrazide] | > 1000 µg/mL
11 | O=C(N/N=C/c1ccccc1Br)c1ccc(O)cc1O [Compound 23, N-[(2-bromophenyl)methylidene]-2,4-dihydroxybenzohydrazide] | > 1000 µg/mL
12 | O=C(N/N=C/c1ccccc1F)c1ccc(O)cc1O [Compound 24, N-[(2-fluorophenyl)methylidene]-2,4-dihydroxybenzohydrazide] | > 1000 µg/mL

What follows are compounds tested on Micrococcus luteus ATCC 10240 (assay: Broth microdilution MIC/MBC). Settings: not given.
Type: cell-based
In short: as §1

Row | SMILES | MBC/MIC
13 | O=C(N/N=C/c1ccc([N+](=O)[O-])cc1)c1ccc(O)cc1O [Compound 21, 2,4-dihydroxy-N-[(4-nitrophenyl)methylidene]benzohydrazide] | > 1
14 | O=C(N/N=C/c1ccccc1F)c1ccc(O)cc1O [Compound 24, N-[(2-fluorophenyl)methylidene]-2,4-dihydroxybenzohydrazide] | > 1

Same assay, conditions: ATCC10240

Row | SMILES | MBC
15 | O=C(N/N=C/c1ccc([N+](=O)[O-])cc1)c1ccc(O)cc1O [Compound 21, 2,4-dihydroxy-N-[(4-nitrophenyl)methylidene]benzohydrazide] | > 1000 µg/mL
16 | O=C(N/N=C/c1ccccc1F)c1ccc(O)cc1O [Compound 24, N-[(2-fluorophenyl)methylidene]-2,4-dihydroxybenzohydrazide] | > 1000 µg/mL

Same assay, conditions: ATCC10240, read-out: MIC

Row | SMILES | MIC
17 | O=C(N/N=C/c1ccc([N+](=O)[O-])cc1)c1ccc(O)cc1O [Compound 21, 2,4-dihydroxy-N-[(4-nitrophenyl)methylidene]benzohydrazide] | 1000 µg/mL (≈ 3.32 mM)
18 | O=C(N/N=C/c1ccccc1Cl)c1ccc(O)cc1O [Compound 22, N-[(2-chlorophenyl)methylidene]-2,4-dihydroxybenzohydrazide] | > 1000 µg/mL
19 | O=C(N/N=C/c1ccccc1Br)c1ccc(O)cc1O [Compound 23, N-[(2-bromophenyl)methylidene]-2,4-dihydroxybenzohydrazide] | > 1000 µg/mL
20 | O=C(N/N=C/c1ccccc1F)c1ccc(O)cc1O [Compound 24, N-[(2-fluorophenyl)methylidene]-2,4-dihydroxybenzohydrazide] | 1000 µg/mL (≈ 3.65 mM)

What follows are compounds tested on Pseudomonas aeruginosa ATCC 9027 (assay: Broth microdilution MIC/MBC). Settings: ATCC9027.
Type: cell-based
In short: as §1

Row | SMILES | MIC
21 | O=C(N/N=C/c1ccc([N+](=O)[O-])cc1)c1ccc(O)cc1O [Compound 21, 2,4-dihydroxy-N-[(4-nitrophenyl)methylidene]benzohydrazide] | > 1000 µg/mL
22 | O=C(N/N=C/c1ccccc1Cl)c1ccc(O)cc1O [Compound 22, N-[(2-chlorophenyl)methylidene]-2,4-dihydroxybenzohydrazide] | > 1000 µg/mL
23 | O=C(N/N=C/c1ccccc1Br)c1ccc(O)cc1O [Compound 23, N-[(2-bromophenyl)methylidene]-2,4-dihydroxybenzohydrazide] | > 1000 µg/mL
24 | O=C(N/N=C/c1ccccc1F)c1ccc(O)cc1O [Compound 24, N-[(2-fluorophenyl)methylidene]-2,4-dihydroxybenzohydrazide] | > 1000 µg/mL

These compounds were tested on Staphylococcus epidermidis ATCC 12228 (assay: Broth microdilution MIC/MBC). Settings: not given.
Type: cell-based
In short: as §1

Row | SMILES | MBC/MIC
25 | O=C(N/N=C/c1ccc([N+](=O)[O-])cc1)c1ccc(O)cc1O [Compound 21, 2,4-dihydroxy-N-[(4-nitrophenyl)methylidene]benzohydrazide] | > 2
26 | O=C(N/N=C/c1ccccc1Cl)c1ccc(O)cc1O [Compound 22, N-[(2-chlorophenyl)methylidene]-2,4-dihydroxybenzohydrazide] | > 1
27 | O=C(N/N=C/c1ccccc1Br)c1ccc(O)cc1O [Compound 23, N-[(2-bromophenyl)methylidene]-2,4-dihydroxybenzohydrazide] | > 2

Same assay, conditions: ATCC12228

Row | SMILES | MBC
28 | O=C(N/N=C/c1ccc([N+](=O)[O-])cc1)c1ccc(O)cc1O [Compound 21, 2,4-dihydroxy-N-[(4-nitrophenyl)methylidene]benzohydrazide] | > 1000 µg/mL
29 | O=C(N/N=C/c1ccccc1Cl)c1ccc(O)cc1O [Compound 22, N-[(2-chlorophenyl)methylidene]-2,4-dihydroxybenzohydrazide] | > 1000 µg/mL
30 | O=C(N/N=C/c1ccccc1Br)c1ccc(O)cc1O [Compound 23, N-[(2-bromophenyl)methylidene]-2,4-dihydroxybenzohydrazide] | > 1000 µg/mL

Same assay, conditions: ATCC12228, read-out: MIC

Row | SMILES | MIC
31 | O=C(N/N=C/c1ccc([N+](=O)[O-])cc1)c1ccc(O)cc1O [Compound 21, 2,4-dihydroxy-N-[(4-nitrophenyl)methylidene]benzohydrazide] | 500 µg/mL (≈ 1.66 mM)
32 | O=C(N/N=C/c1ccccc1Cl)c1ccc(O)cc1O [Compound 22, N-[(2-chlorophenyl)methylidene]-2,4-dihydroxybenzohydrazide] | 1000 µg/mL (≈ 3.44 mM)
33 | O=C(N/N=C/c1ccccc1Br)c1ccc(O)cc1O [Compound 23, N-[(2-bromophenyl)methylidene]-2,4-dihydroxybenzohydrazide] | 500 µg/mL (≈ 1.49 mM)
34 | O=C(N/N=C/c1ccccc1F)c1ccc(O)cc1O [Compound 24, N-[(2-fluorophenyl)methylidene]-2,4-dihydroxybenzohydrazide] | > 1000 µg/mL

The compounds below were run on Staphylococcus aureus ATCC 29213 (assay: Broth microdilution MIC/MBC). Settings: not given.
Type: cell-based
In short: as §1

Row | SMILES | MBC/MIC
35 | O=C(N/N=C/c1ccc([N+](=O)[O-])cc1)c1ccc(O)cc1O [Compound 21, 2,4-dihydroxy-N-[(4-nitrophenyl)methylidene]benzohydrazide] | > 2

Same assay, conditions: ATCC29213

Row | SMILES | MBC | MIC
36 | O=C(N/N=C/c1ccc([N+](=O)[O-])cc1)c1ccc(O)cc1O [Compound 21, 2,4-dihydroxy-N-[(4-nitrophenyl)methylidene]benzohydrazide] | > 1000 µg/mL | 500 µg/mL (≈ 1.66 mM)
37 | O=C(N/N=C/c1ccccc1Cl)c1ccc(O)cc1O [Compound 22, N-[(2-chlorophenyl)methylidene]-2,4-dihydroxybenzohydrazide] | – | > 1000 µg/mL
38 | O=C(N/N=C/c1ccccc1Br)c1ccc(O)cc1O [Compound 23, N-[(2-bromophenyl)methylidene]-2,4-dihydroxybenzohydrazide] | – | > 1000 µg/mL
39 | O=C(N/N=C/c1ccccc1F)c1ccc(O)cc1O [Compound 24, N-[(2-fluorophenyl)methylidene]-2,4-dihydroxybenzohydrazide] | – | > 1000 µg/mL

What follows are compounds tested on Candida glabrata ATCC 90030 (assay: Broth microdilution MIC/MFC). Settings: Nakaseomyces glabratus, ATCC90030, read-out: MIC.
Type: cell-based
In short: as §1

Row | SMILES | MIC
40 | O=C(N/N=C/c1ccc([N+](=O)[O-])cc1)c1ccc(O)cc1O [Compound 21, 2,4-dihydroxy-N-[(4-nitrophenyl)methylidene]benzohydrazide] | > 1000 µg/mL
41 | O=C(N/N=C/c1ccccc1Cl)c1ccc(O)cc1O [Compound 22, N-[(2-chlorophenyl)methylidene]-2,4-dihydroxybenzohydrazide] | > 1000 µg/mL
42 | O=C(N/N=C/c1ccccc1Br)c1ccc(O)cc1O [Compound 23, N-[(2-bromophenyl)methylidene]-2,4-dihydroxybenzohydrazide] | > 1000 µg/mL
43 | O=C(N/N=C/c1ccccc1F)c1ccc(O)cc1O [Compound 24, N-[(2-fluorophenyl)methylidene]-2,4-dihydroxybenzohydrazide] | > 1000 µg/mL

The compounds below were run on Candida albicans ATCC 2091 (assay: Broth microdilution MIC/MFC). Settings: not given.
Type: cell-based
In short: as §1

Row | SMILES | MFC/MIC
44 | O=C(N/N=C/c1ccc([N+](=O)[O-])cc1)c1ccc(O)cc1O [Compound 21, 2,4-dihydroxy-N-[(4-nitrophenyl)methylidene]benzohydrazide] | > 1
45 | O=C(N/N=C/c1ccccc1Cl)c1ccc(O)cc1O [Compound 22, N-[(2-chlorophenyl)methylidene]-2,4-dihydroxybenzohydrazide] | > 1
46 | O=C(N/N=C/c1ccccc1Br)c1ccc(O)cc1O [Compound 23, N-[(2-bromophenyl)methylidene]-2,4-dihydroxybenzohydrazide] | > 1
47 | O=C(N/N=C/c1ccccc1F)c1ccc(O)cc1O [Compound 24, N-[(2-fluorophenyl)methylidene]-2,4-dihydroxybenzohydrazide] | > 1

Same assay, conditions: ATCC2091, read-out: MFC

Row | SMILES | MFC
48 | O=C(N/N=C/c1ccc([N+](=O)[O-])cc1)c1ccc(O)cc1O [Compound 21, 2,4-dihydroxy-N-[(4-nitrophenyl)methylidene]benzohydrazide] | > 1000 µg/mL
49 | O=C(N/N=C/c1ccccc1Cl)c1ccc(O)cc1O [Compound 22, N-[(2-chlorophenyl)methylidene]-2,4-dihydroxybenzohydrazide] | > 1000 µg/mL
50 | O=C(N/N=C/c1ccccc1Br)c1ccc(O)cc1O [Compound 23, N-[(2-bromophenyl)methylidene]-2,4-dihydroxybenzohydrazide] | > 1000 µg/mL
51 | O=C(N/N=C/c1ccccc1F)c1ccc(O)cc1O [Compound 24, N-[(2-fluorophenyl)methylidene]-2,4-dihydroxybenzohydrazide] | > 1000 µg/mL

Same assay, conditions: ATCC2091, read-out: MIC

Row | SMILES | MIC
52 | O=C(N/N=C/c1ccc([N+](=O)[O-])cc1)c1ccc(O)cc1O [Compound 21, 2,4-dihydroxy-N-[(4-nitrophenyl)methylidene]benzohydrazide] | 1000 µg/mL (≈ 3.32 mM)
53 | O=C(N/N=C/c1ccccc1Cl)c1ccc(O)cc1O [Compound 22, N-[(2-chlorophenyl)methylidene]-2,4-dihydroxybenzohydrazide] | 1000 µg/mL (≈ 3.44 mM)
54 | O=C(N/N=C/c1ccccc1Br)c1ccc(O)cc1O [Compound 23, N-[(2-bromophenyl)methylidene]-2,4-dihydroxybenzohydrazide] | 1000 µg/mL (≈ 2.98 mM)
55 | O=C(N/N=C/c1ccccc1F)c1ccc(O)cc1O [Compound 24, N-[(2-fluorophenyl)methylidene]-2,4-dihydroxybenzohydrazide] | 1000 µg/mL (≈ 3.65 mM)

The compounds below were run on Candida albicans ATCC 10231 (assay: Broth microdilution MIC/MFC). Settings: not given.
Type: cell-based
In short: as §1

Row | SMILES | MFC/MIC
56 | O=C(N/N=C/c1ccc([N+](=O)[O-])cc1)c1ccc(O)cc1O [Compound 21, 2,4-dihydroxy-N-[(4-nitrophenyl)methylidene]benzohydrazide] | > 2
57 | O=C(N/N=C/c1ccccc1Cl)c1ccc(O)cc1O [Compound 22, N-[(2-chlorophenyl)methylidene]-2,4-dihydroxybenzohydrazide] | > 1
58 | O=C(N/N=C/c1ccccc1Br)c1ccc(O)cc1O [Compound 23, N-[(2-bromophenyl)methylidene]-2,4-dihydroxybenzohydrazide] | > 1
59 | O=C(N/N=C/c1ccccc1F)c1ccc(O)cc1O [Compound 24, N-[(2-fluorophenyl)methylidene]-2,4-dihydroxybenzohydrazide] | > 1

Same assay, conditions: ATCC10231, read-out: MFC

Row | SMILES | MFC
60 | O=C(N/N=C/c1ccc([N+](=O)[O-])cc1)c1ccc(O)cc1O [Compound 21, 2,4-dihydroxy-N-[(4-nitrophenyl)methylidene]benzohydrazide] | > 1000 µg/mL
61 | O=C(N/N=C/c1ccccc1Cl)c1ccc(O)cc1O [Compound 22, N-[(2-chlorophenyl)methylidene]-2,4-dihydroxybenzohydrazide] | > 1000 µg/mL
62 | O=C(N/N=C/c1ccccc1Br)c1ccc(O)cc1O [Compound 23, N-[(2-bromophenyl)methylidene]-2,4-dihydroxybenzohydrazide] | > 1000 µg/mL
63 | O=C(N/N=C/c1ccccc1F)c1ccc(O)cc1O [Compound 24, N-[(2-fluorophenyl)methylidene]-2,4-dihydroxybenzohydrazide] | > 1000 µg/mL

Same assay, conditions: ATCC10231, read-out: MIC

Row | SMILES | MIC
64 | O=C(N/N=C/c1ccc([N+](=O)[O-])cc1)c1ccc(O)cc1O [Compound 21, 2,4-dihydroxy-N-[(4-nitrophenyl)methylidene]benzohydrazide] | 500 µg/mL (≈ 1.66 mM)
65 | O=C(N/N=C/c1ccccc1Cl)c1ccc(O)cc1O [Compound 22, N-[(2-chlorophenyl)methylidene]-2,4-dihydroxybenzohydrazide] | 1000 µg/mL (≈ 3.44 mM)
66 | O=C(N/N=C/c1ccccc1Br)c1ccc(O)cc1O [Compound 23, N-[(2-bromophenyl)methylidene]-2,4-dihydroxybenzohydrazide] | 1000 µg/mL (≈ 2.98 mM)
67 | O=C(N/N=C/c1ccccc1F)c1ccc(O)cc1O [Compound 24, N-[(2-fluorophenyl)methylidene]-2,4-dihydroxybenzohydrazide] | 1000 µg/mL (≈ 3.65 mM)
